Test results from article PMC10974622, “Hybrid Peptide-Alkoxyamine Drugs: A Strategy for the Development of a New Family of Antiplasmodial Drugs” (Molecules, 2024).
Where two headings read alike, the source gives them in different places.

How the values were obtained:
[1] = system: P. falciparum strain F32-ART (artemisinin-resistant); assay: microbe, parasite or virus in culture; assay type: cell-based, Plasmodium falciparum; details: for Selectivity Index CC50/IC50: cytotoxicity (Vero cells)/antiplasmodial activity (F32-ART) ratio
From the text: The antimalarial activity of peptide-alkoxyamine hybrids was first evaluated in the in vitro antiproliferative test (IC50) using the artemisinin-resistant strain F32-ART (Table 2, Table S1). The roles of the N-substitution of the alkoxyamine moiety (TEMPO- or DBNO-based, for example, A3L/A8L, line 1/line 10), of the configuration (L or D of the peptide, A3L/A3D, line 1/line 2), of the N-protection of the peptide (A3L/A4L or A5L, line 1/ lines 3 and 5) were examined. According to standard rules in the malaria field, only molecules having IC50 values below 1 μM were considered active.
The F32-ART (artemisinin-resistant) strain and the F32-TEM (artemisinin-sensitive strain) were cultured according to Trager and Jensen in RPMI 1640 medium (Fisher Scientific, Illkirch, France) supplemented with 5% human serum (Etablissement français du Sang, Toulouse, France) at 2% hematocrit with type O human blood (Etablissement français du Sang, Toulouse, France), 37 °C, and 5% CO2 in a humidified atmosphere.
(§1) IC50 values corresponding to 50% inhibition of P. falciparum growth were determined by SYBR Green assay, and the assessment of cytotoxicity was performed on Vero cells (cell line from the kidney of a normal adult African green monkey), as previously published. The selectivity index corresponded to the cytotoxicity/activity ratio.

Vero cells [2] = assay: in vitro; assay type: cell-based, African green monkey; details: African green monkey
Procedure: as §1

in vitro = assay type: cell-based, African green monkey; details: African green monkey, Cytotoxicity CC50
Procedure: as §1

[3] = Kinetic analysis of alkoxyamine bond homolysis by EPR; assay type: physicochemical; details: Equation (2), A = 2.4 · 10^14 s^−1
Procedure: The kinetic homolysis for peptide-alkoxyamines reported in Table 1 was recorded in EPR using two solvents, tert-butylbenzene (t-BuPh) or an n-propanol:water (1:1, v:v) mixture. The growth of nitroxide was recorded in the presence of an alkyl radical scavenger, i.e., O2 here, to suppress the back reaction (kc in Scheme 4), as already reported.
Homolysis rate constants kd are given by Equation (1) ([nitroxide]∞ = [alkoxyamine]0 = 0.1 mM), and the subsequent activation energy values Ea are given by Equation (2), as follows:(1) lnnitroxide∞−nitroxidet/nitroxide∞=−kd·t (2) Ea=−RTlnkd/A

[4] = Thermolysis of A8L in DMSO with or without hemin, LC-MS; assay type: physicochemical; details: 80 °C, 1 h
Procedure: Since a putative antimalarial mechanism of action of these hybrid drugs was the alkylation of heme within the parasite food vacuole, the reactivity of the hybrid having the lower IC50 value, namely A8L (Table 2), was evaluated in the presence (or absence) of heme. In the absence of any protease activity able to cleave the tripeptide fragment, the alkoxyamine C–O bond was stable at room temperature; thus, thermolysis was carried out in DMSO at 80 °C for 1 h under an air atmosphere to achieve a nearly complete reaction (88–90% of conversion of A8L). The reaction was monitored by LC-MS analysis, and products A–F were detected and quantified (Figure 4). […] Products B, C, and D, resulting from the capture of dioxygen by the alkyl radical, were the major ones, with yields of 30%, 13%, and 21%, respectively, with respect to the starting amount of A8L. B and C have already been detected as thermolysis products of uncoupled alkoxyamine.
In a test tube equipped with a magnetic stirrer, 20 μL of a stock solution of A8L (10 mM in DMSO) was added to 180 μL of DMSO. […] Retention times and detected m/z values (amu) were as follows: JP2310, 20.8 min, 758.5 (MH^+), 702.4 (fragment); A, 27.4 min, 615.4 (MH^+); B, 21.2 min, 629.3 (MH^+); C, 20.1 min, 631.4 (MH^+); D, 20.3 min, 647.3 (MH^+); F, 25.7 min, 613.3 (MH^+); hemin, 17.3 min, 616.2 (M^+).

[5] = system: F32-ART parasites at the quiescent stage; assay: Quiescent-stage Survival Assay (QSA); assay type: cell-based, Plasmodium falciparum; details: 700 nM DHA 6 h/(DHA + molecule 7 µM) 48 h
Procedure: In this assay, parasites were exposed to dihydroartemisinin (DHA) alone to induce quiescence, prior the addition of the drug to be tested for 48 h, and then the parasite recrudescence was monitored over a maximum of 4 weeks. Activity against quiescent parasites was evidenced by a delay in recrudescence time over 6 days between the conditions “DHA 6 h / DHA 48 h” and “DHA 6 h/(DHA + molecule) 48 h”. Atovaquone was used as a positive control, and its activity against quiescent parasites was here confirmed, as expected, by an extended delay of 11 days in recrudescence time (Figure 5). By contrast, no activity of A8L and A3L against quiescent parasites was evidenced in the QSA, with similar recrudescence time between the conditions “DHA 6 h/DHA 48 h” and “DHA 6 h/(DHA + molecule) 48 h”. […] To understand this phenomenon, we explored the parasite response during treatment with these hybrid compounds.
The QSA was performed according to Reyser et al.. Briefly, ART-resistant ring-stage parasites at 3% parasitemia were exposed for 6 h to 700 nM of DHA (dihydroartemisinin) to induce quiescence or were exposed to no drugs (control condition). After that, the compound to be tested was added in both conditions […]. At the end of the treatment, the drugs were washed off with RPMI-1640, and parasites were replaced in drug-free conditions. Blood smears were performed to follow parasitemia until the day the cultures reached their starting parasitemia, defined as the recrudescence day. If after 30 days no parasite recrudescence was observed, then the data were censored. Data analysis was performed using Kaplan–Meier survival curves. Statistical significance was ascertained by using a log-rank (Mantel-Cox) test using GraphPad Prism 7 software (San Diego, CA, USA).

F32-ART parasites = assay: Parasitemia monitoring and parasite morphology upon drug exposure, F32-ART ring-stage parasites; assay type: cell-based, Plasmodium falciparum; details: 48 h exposure
Procedure: (§2) The effect of hybrid compounds against Plasmodium parasites was assessed by the microscopic examination of parasite morphology upon drug exposure. For this purpose, parasites were synchronized at 0–4 h age by percoll-sorbitol treatment, 0–24 h age by sorbitol treatment, or at schizont stage by percoll treatment at the start of the experiment. Different treatment schedules were tested. In the case of multiple doses, parasite cultures were washed before each new drug addition.

[6] = system: F32-TEM parasites (artemisinin-sensitive); assay: Parasitemia monitoring with different treatment schedules, F32-TEM parasites; assay type: cell-based, Plasmodium falciparum
[7] = system: P. falciparum parasites at the schizont stage; assay: Efficacy on the re-invasion step, post-percoll schizonts treated 15 h; assay type: cell-based, Plasmodium falciparum
Procedure: We wondered if this activity was due to a specific effect of the drug toward the schizont stage and re-invasion step of the parasite life cycle. However, treatment of parasites at the schizont stage for 15 h with A8L had no effect on parasite viability or development (Figure 8), highlighting that the mechanism of action of A8L has yet to be identified.
as §2

Vero cells [8] = details: cited from earlier work
S. mansoni = system: S. mansoni; set-up: method as in doi:10.1021/cr00014a008; details: 100 μg/mL, in 2 h, in vitro ref 22; cited from earlier work
chymotrypsin = target: T1, chymotrypsin (Bos taurus, UniProt P00766); assay: Enzymatic activation and homolysis monitored by EPR, chymotrypsin; assay type: biochemical; details: 37 °C
T1 construct: purchased Worthington
Procedure: Due to the low solubility of A3L/D–A5L/D in water, suitable concentrations (ca. 0.1 mM) for EPR detection could not be reached. Thus, A7L was prepared, which afforded a carboxylate function at a physiological pH. […] As other PLMs were not available, chymotrypsin, a pancreatic protease that accepts substrates with Phe in the P1 position, was used to hydrolyse A7L. The release of the free alkoxyamine, which decomposed spontaneously and rapidly into alkyl radical R3• and nitroxide R1R2NO•, and the concentration in nitroxide was monitored with EPR (Figure 3).
Kinetics were performed in HEPES 50 mM buffer containing […] at 37 °C. Then, 2.5 mM of hemin (Santa Cruz biotechnology, Heidelberg, Germany) was added to scavenge the alkyl radicals. In one, kinetic Chymotrypsin (Worthington, OH, USA) was added. Activation and homolysis were monitored by reading the concentrations of released TEMPO using, versus time, a calibrated EPR spectrometer (EMX Nano, Bruker, Wissembourg, France).

PLM I = PLM I (Plasmodium falciparum, UniProt P39898); assay: Enzymatic activation monitored by EPR, PLM I; assay type: biochemical
Solubility in water = assay type: physicochemical
[9] = read-out: Antiplasmodial Activity IC50, strain F32-ART, SYBR Green assay, mean ± SEM of 3 to 6 experiments
[10] = Plasmodium falciparum, F32, read-out: Antiplasmodial Activity IC50, strain F32-ART, SYBR Green assay, mean ± SEM of 3 to 6 experiments
[11] = Plasmodium falciparum, F32, read-out: Antiplasmodial IC50, strain F32-ART

PLM I, sequence (P39898 124-452): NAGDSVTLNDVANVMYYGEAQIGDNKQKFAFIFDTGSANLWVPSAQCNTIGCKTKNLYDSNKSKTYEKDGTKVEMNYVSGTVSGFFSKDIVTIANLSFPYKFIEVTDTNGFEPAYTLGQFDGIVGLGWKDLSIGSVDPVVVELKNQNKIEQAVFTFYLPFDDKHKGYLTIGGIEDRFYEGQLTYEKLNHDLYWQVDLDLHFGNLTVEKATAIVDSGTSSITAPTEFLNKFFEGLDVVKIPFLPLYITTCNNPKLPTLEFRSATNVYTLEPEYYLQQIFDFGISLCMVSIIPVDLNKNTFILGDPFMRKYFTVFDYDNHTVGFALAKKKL

CC(ON(C(C)(C)C)C(C)(C)C)c1ccc(NC(=O)[C@@H](Cc2ccccc2)NC(=O)[C@H](NC(=O)[C@H](N)Cc2ccccc2)C(C)C)cc1 (stereo partly drawn) [AW231]
IC50 [1, 9]: 4.48 ± 0.29 µM
CC50 (Vero cells [2]): 6.6 ± 0.4 µM

CC(ON(C(C)(C)C)C(C)(C)C)c1ccc(NC(=O)[C@H](Cc2ccccc2)NC(=O)[C@@H](NC(=O)[C@H](Cc2ccccc2)NC(=O)OC(C)(C)C)C(C)C)cc1 (stereo partly drawn) [A8L]
IC50 [1, 10]: 0.27 ± 0.04 µM
IC50 [1, 11]: 0.3 µM
Selectivity Index CC50/IC50 [1]: >185
CC50 (in vitro): > 50 µM
activation energy Ea ([3]; in t-BuPh): 28.9 kcal/mol
activation energy Ea ([3]; in water/n-PrOH 1/1 v/v): 28.9 kcal/mol
conversion of A8L on thermolysis ([4]; A8L/hemin molar ratio 1/1): 88–89%
conversion of A8L on thermolysis ([4]; air, absence of hemin): 88–90%
activity against quiescent parasites in the QSA [5]: no activity
effect on parasitemia and parasite cell cycle (F32-ART parasites): cytostatic-like effect
effect on parasite cell cycle ([6]; F32-TEM, 5 µM 48 h): cytostatic-like effect
effect of repeated exposure for at least three days ([6]; once or twice a day for three days): elimination of parasites in a dose-dependent manner
effect on parasite viability or development [7]: no effect

CC(ON1C(C)(C)CCCC1(C)C)c1ccc(NC(=O)[C@H](Cc2ccccc2)NC(=O)[C@@H](NC(=O)[C@H](Cc2ccccc2)NC(=O)OC(C)(C)C)C(C)C)cc1 (stereo partly drawn) [A3L, Boc-Phe-Val-Phe-anilide-TEMPO]
IC50 [1, 10]: 0.3 ± 0.04 µM
IC50 [1, 11]: 0.27 µM
Selectivity Index CC50/IC50 [1]: >165
activity against quiescent parasites in the QSA [5]: no activity
effect on parasitemia and parasite cell cycle (F32-ART parasites): cytostatic-like effect
CC50 (Vero cells [8]): > 50 µM

CC(ON1C(C)(C)CCCC1(C)C)c1ccc(NC(=O)[C@H](Cc2ccccc2)NC(=O)[C@@H](NC(=O)[C@@H](N)Cc2ccccc2)C(C)C)cc1 (stereo partly drawn) [A4L]
IC50 [1, 10]: > 50 µM
schistosomal population killed (S. mansoni): 50%
CC50 (Vero cells [8]): > 50 µM

CC(ON1C(C)(C)CCCC1(C)C)c1ccc(NC(=O)[C@H](Cc2ccccc2)NC(=O)[C@@H](NC(=O)[C@@H](N)Cc2ccccc2)C(C)C)cc1 (stereo partly drawn) [A5L]
IC50 [1, 9]: > 50 µM
schistosomal population killed (S. mansoni): 50%
CC50 (Vero cells [8]): > 50 µM

CC(ON1C(C)(C)CCCC1(C)C)c1ccc(NC(=O)[C@@H](Cc2ccccc2)NC(=O)[C@H](NC(=O)[C@H](N)Cc2ccccc2)C(C)C)cc1 (stereo partly drawn) [A4D]
IC50 [1, 10]: 2.2 to 2.6 µM
Selectivity Index CC50/IC50 [1]: 1.1
IC50 [1, 9]: 2.3 ± 0.3 µM
CC50 (in vitro): 2.2 to 2.6 µM
CC50 (Vero cells [2]): 2.6 ± 0.3 µM

CC(ON1C(C)(C)CCCC1(C)C)c1ccc(NC(=O)[C@H](Cc2ccccc2)NC(=O)[C@@H](NC(=O)[C@H](Cc2ccccc2)NC(=O)CCC(=O)O)C(C)C)cc1 (stereo partly drawn) [A7L, suc-Phe-Val-Phe-anilide-TEMPO]
IC50 [1, 10]: 5 ± 3 µM
Selectivity Index CC50/IC50 [1]: >10
stability of the prodrug (chymotrypsin; absence of chymotrypsin): stable at 37 °C
activation by protease, release of nitroxide (EPR) (chymotrypsin; presence of chymotrypsin, HEPES buffer): activatable by chymotrypsin
EPR signal of TEMPO in the presence of PLM I (PLM I): no EPR signal of TEMPO could be observed
pH above which soluble (Solubility in water): above 5.5
CC50 (Vero cells [8]): > 50 µM
